{"source": "ChEMBL document CHEMBL5506037", "about": "“Synthesis of Heterocyclic Ring-Fused Bisnoralcohol Derivatives as Novel Small-Molecule Antiosteoporosis Agents” (J Med Chem, 2024)", "key": {"BMMC [1]": {"system": "BMMC", "experiment": "Anti-osteoclastogenesis activity in M-CSF/RANKL-induced C57BL/6J mouse BMMC cells assessed as inhibition of osteoclast differentiation at 1 uM incubated for 7 days by TRAP staining based analysis relative to control", "format": "functional", "conditions": "168 h, time 7 day"}, "[2]": {"experiment": "Cytotoxicity against M-CSF induced C57BL/6J mouse BMMC cells assessed as cell viability at 10 uM incubated for 48 hrs by CCK-8 assay relative to control", "format": "toxicity, cell-based", "conditions": "read-out: Activity"}, "BMMC [3]": {"system": "BMMC", "experiment": "Anti-osteoclastogenesis activity in M-CSF/RANKL-induced C57BL/6J mouse BMMC cells assessed as inhibition of osteoclast differentiation at 0.1 uM incubated for 7 days by TRAP staining based analysis relative to control", "format": "functional", "conditions": "168 h, time 7 day"}, "[4]": {"experiment": "Cmax in ICR mouse at 1 mg/kg, iv measured upto 24 hrs by LC-MS/MS analysis", "format": "ADME, organism-based", "conditions": "in vivo"}, "[5]": {"experiment": "AUC (0 to t) in ICR mouse at 1 mg/kg, iv measured upto 24 hrs by LC-MS/MS analysis", "format": "ADME, organism-based", "conditions": "in vivo"}, "[6]": {"experiment": "Apparent volume of distribution in ICR mouse at 1 mg/kg, iv measured upto 24 hrs by LC-MS/MS analysis", "format": "ADME, organism-based", "conditions": "in vivo, read-out: Vz"}, "[7]": {"experiment": "Terminal elimination half life in ICR mouse at 1 mg/kg, iv measured upto 24 hrs by LC-MS/MS analysis", "format": "ADME, organism-based", "conditions": "in vivo, read-out: beta t1/2 (converted)"}, "[8]": {"experiment": "Tmax in ICR mouse at 10 mg/kg, po measured upto 24 hrs by LC-MS/MS analysis", "format": "ADME, organism-based", "conditions": "in vivo"}, "[9]": {"experiment": "Cmax in ICR mouse at 10 mg/kg, po measured upto 24 hrs by LC-MS/MS analysis", "format": "ADME, organism-based", "conditions": "in vivo"}, "[10]": {"experiment": "AUC (0 to t) in ICR mouse at 10 mg/kg, po measured upto 24 hrs by LC-MS/MS analysis", "format": "ADME, organism-based", "conditions": "in vivo"}, "[11]": {"experiment": "AUC (0 to infinity) in ICR mouse at 10 mg/kg, po measured upto 24 hrs by LC-MS/MS analysis", "format": "ADME, organism-based", "conditions": "in vivo"}, "BMMC [12]": {"system": "BMMC", "experiment": "Anti-osteoclastogenesis activity in M-CSF/RANKL-induced C57BL/6J mouse BMMC cells assessed as inhibition of osteoclast differentiation incubated for 7 days by TRAP staining based analysis", "format": "functional, cell-based", "conditions": "168 h"}, "BMMC [13]": {"system": "BMMC", "experiment": "Anti-osteoclastogenesis activity in M-CSF/RANKL-induced C57BL/6J mouse BMMC cells assessed as reduction in size and amount of osteoclasts by measuring reduction in TRAP-positive multinucleated cells incubated for 7 days by TRAP staining based analysis", "format": "functional, cell-based", "conditions": "dose 0.05-0.5 µM, time 7.0 day"}, "BMMC [14]": {"system": "BMMC", "experiment": "Anti-osteoclastogenesis activity in M-CSF/RANKL-induced C57BL/6J mouse BMMC cells assessed as reduction in osteoclast generation at 0.05 uM incubated for 7 days by TRAP staining based analysis relative to control", "format": "functional", "parameters": "scale not given: the % may be the effect or the level left", "conditions": "time 7 day"}, "BMMC [15]": {"system": "BMMC", "experiment": "Anti-osteoclastogenesis activity in M-CSF/RANKL-induced C57BL/6J mouse BMMC cells assessed as inhibition of osteoclast differentiation at early stage at 0.1 uM measured after 1 to 3 days by TRAP staining based analysis relative to control", "format": "functional", "conditions": "time 1-3 day"}, "BMMC [16]": {"system": "BMMC", "experiment": "Anti-osteoclastogenesis activity in M-CSF/RANKL-induced C57BL/6J mouse BMMC cells assessed as reduction in TRAF6 mRNA expression at 0.05 to 5 uM measured after 2 days by RT-qPCR analysis", "format": "functional, cell-based", "conditions": "dose 0.05-5 µM, time 2.0 day"}, "BMMC [17]": {"system": "BMMC", "experiment": "Anti-osteoclastogenesis activity in M-CSF/RANKL-induced C57BL/6J mouse BMMC cells assessed as reduction in c-Fos mRNA expression at 0.05 to 5 uM measured after 2 days by RT-qPCR analysis", "format": "functional, cell-based", "conditions": "dose 0.05-5 µM, time 2.0 day"}, "BMMC [18]": {"system": "BMMC", "experiment": "Anti-osteoclastogenesis activity in M-CSF/RANKL-induced C57BL/6J mouse BMMC cells assessed as reduction in CTSK mRNA expression at 0.05 to 5 uM measured after 2 days by RT-qPCR analysis", "format": "functional, cell-based", "conditions": "dose 0.05-5 µM, time 2.0 day"}, "BMMC [19]": {"system": "BMMC", "experiment": "Anti-osteoclastogenesis activity in M-CSF/RANKL-induced C57BL/6J mouse BMMC cells assessed as reduction in MMP9 mRNA expression at 0.05 to 5 uM measured after 2 days by RT-qPCR analysis", "format": "functional, cell-based", "conditions": "dose 0.05-5 µM, time 2.0 day"}, "BMMC [20]": {"system": "BMMC", "experiment": "Anti-osteoclastogenesis activity in M-CSF/RANKL-induced C57BL/6J mouse BMMC cells assessed as reduction in c-Fos protein expression measured after 3 days by Western blot analysis", "format": "functional, cell-based", "conditions": "dose 0.05-5 µM, time 3.0 day"}, "BMMC [21]": {"system": "BMMC", "experiment": "Anti-osteoclastogenesis activity in M-CSF/RANKL-induced C57BL/6J mouse BMMC cells assessed as inhibition of Acp5 gene expression by RNA sequencing analysis", "format": "functional, cell-based"}, "BMMC [22]": {"system": "BMMC", "experiment": "Anti-osteoclastogenesis activity in M-CSF/RANKL-induced C57BL/6J mouse BMMC cells assessed as inhibition of CTSK gene expression by RNA sequencing analysis", "format": "functional, cell-based"}, "BMMC [23]": {"system": "BMMC", "experiment": "Anti-osteoclastogenesis activity in M-CSF/RANKL-induced C57BL/6J mouse BMMC cells assessed as inhibition of FCGR3 gene expression by RNA sequencing analysis", "format": "functional, cell-based"}, "BMMC [24]": {"system": "BMMC", "experiment": "Anti-osteoclastogenesis activity in M-CSF/RANKL-induced C57BL/6J mouse BMMC cells assessed as inhibition of Fosl2 gene expression by RNA sequencing analysis", "format": "functional, cell-based"}, "BMMC [25]": {"system": "BMMC", "experiment": "Anti-osteoclastogenesis activity in M-CSF/RANKL-induced C57BL/6J mouse BMMC cells assessed as inhibition of Itgb3 gene expression by RNA sequencing analysis", "format": "functional, cell-based"}, "BMMC [26]": {"system": "BMMC", "experiment": "Anti-osteoclastogenesis activity in M-CSF/RANKL-induced C57BL/6J mouse BMMC cells assessed as inhibition of lilra5 gene expression by RNA sequencing analysis", "format": "functional, cell-based"}, "[27]": {"experiment": "Toxicity in ovariectomized female C57BL/6 mouse assessed as reduction in body weight at 0.2 to 0.6 mg/kg, ip administered every day for 6 weeks", "format": "organism-based", "conditions": "in vivo, 1008 h, dose 0.2-0.6 mg/kg"}, "Mus musculus [28]": {"system": "Mus musculus", "experiment": "Anti-osteoporosis activity in ovariectomized C57BL/6 mouse assessed as prevention of bone loss by measuring recovery of BV/TV in femur at 0.6 mg/kg, ip administered every day for 6 weeks by 3D-imaging analysis relative to control", "format": "functional"}, "Mus musculus [29]": {"system": "Mus musculus", "experiment": "Anti-osteoporosis activity in ovariectomized C57BL/6 mouse assessed as prevention of bone loss by measuring recovery of trabecular number in femur at 0.6 mg/kg, ip administered every day for 6 weeks by 3D-imaging analysis relative to control", "format": "functional"}, "Mus musculus [30]": {"system": "Mus musculus", "experiment": "Anti-osteoporosis activity in ovariectomized C57BL/6 mouse assessed as prevention of bone loss by measuring recovery of trabecular spacing in femur at 0.6 mg/kg, ip administered every day for 6 weeks by 3D-imaging analysis relative to control", "format": "functional"}, "Mus musculus [31]": {"system": "Mus musculus", "experiment": "Anti-osteoporosis activity in ovariectomized C57BL/6 mouse assessed as prevention of bone loss by measuring reduction in osteoclast formation at 0.6 mg/kg, ip administered every day for 6 weeks by H and E staining based analysis", "format": "functional, organism-based"}, "Mus musculus [32]": {"system": "Mus musculus", "experiment": "Anti-osteoporosis activity in ovariectomized C57BL/6 mouse assessed as prevention of bone loss by measuring reduction in osteoclast formation at 0.6 mg/kg, ip administered every day for 6 weeks by TRAP staining based analysis", "format": "functional, organism-based"}}, "note": "The source made the active and inactive calls. The rule behind the calls is not given here.", "data": [{"smiles": "CCNC(=O)[C@@H](C)[C@H]1CC[C@H]2[C@@H]3CC=C4C(C)(C)c5nnsc5C[C@]4(C)[C@H]3CC[C@]12C", "values": [{"measurement": "inhibition at 1 µM", "setting": "BMMC [1]", "value": 100, "unit": "%"}, {"measurement": "viability at 48 h, 10 µM", "setting": "[2]", "value": "≥ 100", "unit": "%"}, {"measurement": "inhibition at 0.1 µM", "setting": "BMMC [3]", "value": 82.8, "unit": "%"}, {"measurement": "Cmax", "setting": "[4]", "value": 484, "unit": "ng/mL"}, {"measurement": "AUC(0-t) at 24 h", "setting": "[5]", "value": 509, "unit": "ng·h/mL"}, {"measurement": "Vd", "setting": "[6]", "value": 4.85, "unit": "L/kg"}, {"measurement": "half-life", "setting": "[7]", "value": 1.76, "unit": "h"}, {"measurement": "Tmax", "setting": "[8]", "value": 0.67, "unit": "h"}, {"measurement": "Cmax", "setting": "[9]", "value": 230, "unit": "ng/mL"}, {"measurement": "AUC(0-t) at 24 h", "setting": "[10]", "value": 654, "unit": "ng·h/mL"}, {"measurement": "AUC(0-inf)", "setting": "[11]", "value": 688, "unit": "ng·h/mL"}, {"measurement": "IC50", "setting": "BMMC [12]", "value": 52, "unit": "nM"}, {"measurement": "Activity", "setting": "BMMC [13]", "value": "Dose-Dependent Effect"}, {"measurement": "Activity", "setting": "BMMC [14]", "value": 50, "unit": "%"}, {"measurement": "inhibition at 0.1 µM", "setting": "BMMC [15]", "value": 73.1, "unit": "%"}, {"measurement": "Activity", "setting": "BMMC [16]", "value": "Active"}, {"measurement": "Activity", "setting": "BMMC [17]", "value": "Active"}, {"measurement": "Activity", "setting": "BMMC [18]", "value": "Active"}, {"measurement": "Activity", "setting": "BMMC [19]", "value": "Active"}, {"measurement": "Activity", "setting": "BMMC [20]", "value": "Dose-Dependent Effect"}, {"measurement": "Activity", "setting": "BMMC [21]", "value": "Active"}, {"measurement": "Activity", "setting": "BMMC [22]", "value": "Active"}, {"measurement": "Activity", "setting": "BMMC [23]", "value": "Active"}, {"measurement": "Activity", "setting": "BMMC [24]", "value": "Active"}, {"measurement": "Activity", "setting": "BMMC [25]", "value": "Active"}, {"measurement": "Activity", "setting": "BMMC [26]", "value": "Active"}, {"measurement": "Activity", "setting": "[27]", "value": "Non-Toxic"}, {"measurement": "Activity", "setting": "Mus musculus [28]", "value": 57.15, "unit": "%"}, {"measurement": "Activity", "setting": "Mus musculus [29]", "value": 48.64, "unit": "%"}, {"measurement": "Activity", "setting": "Mus musculus [30]", "value": 61.09, "unit": "%"}, {"measurement": "Activity", "setting": "Mus musculus [31]", "value": "Active"}, {"measurement": "Activity", "setting": "Mus musculus [32]", "value": "Active"}]}]}
